“And” between values parts separate entries of the source, which are not always exact repeats. Identical values can stand only once. Each block holds one compound with its values, some of them ahead of it.
Key:
[1] = cited from earlier work
[2] = Size of fragrance-loaded silk microparticles from silk/fragrance emulsions; format: physicochemical; details: n = 3
Protocol: To determine the effectiveness of encapsulation of a silk based oil-water-oil system, fragrance oils targeted for encapsulation were added to the silk/polyvinyl alcohol (PVA) aqueous phase at ratios ranging from 1:2 up to 1:8 (v:v). The ratio of silk to fragrance oils was altered prior to sonication and addition of secondary oil phase. […] Formation of fragrance-loaded silk microparticles was more challenging at ˜1% silk concentrations for any of the fragrances tested.
The water phase was created by combining 5:1 (v:v) silk fibroin solution with 3% (w/v) PVA solution. The oil fragrance targeted for encapsulation was manually added to an aqueous phase. The stable primary O/W emulsion was sonicated (20% for 20 seconds) to disperse the oil, reduce the diameter of the oil particles and initiate β-sheet formation. The vegetable oil (sunflower oil) was added as the secondary oil phase at a 10:1 volumetric ratio with respect to the primary emulsion. The O/W/O emulsion was vortexed at high speed for 30 seconds and incubated overnight at room temperature. The microparticles were collected via centrifugation, and excess oil was removed by two successive ethanol rinses. The isolated particles were resuspended in deionized water and stored at room temperature.

[3] = Interfacial tension between silk solution and limonene (pendant drop); format: physicochemical
Protocol: To elucidate the interaction of silk and the fragrance oils the interfacial tension was measured. Interfacial tension between the two liquids dictates emulsion stability and ultimately microparticle size and distribution (Terjung et al., 2012). Various silk concentrations were assessed along with three silk molecular weight ranges: low, medium and high based on degumming times of ˜60, ˜30 and ˜10 minutes respectively. […] Interfacial tension drops when the molecular weight of the silk protein is decreased. This is in agreement with other studies that show a dependence of surface tension on molecular weight and molecular chain branching (Dettre et al., 1966 and Legrand et al., 1969). […] The highest interfacial tension was 8.16+/−0.57 mN/m for the […] molecular weight silk at a concentration of about 2%. […] Hung et al. discussed that an increase in the concentration of short chain molecules can correspond to a decrease in interfacial tension in an aqueous system (Ly et al. 2004). This is a behavior indicative of emulsifiers, which traditionally serve to stabilize mixtures and generally show better stability with increase in concentration (Djakovic et al., 1987).
Interfacial tension measurements were made using a Ramé-Hart Goniometer (Model 200) running DROPimage Standard analysis software. A silk solution drop of known volume was suspended on the tip of a needle which was submerged in the fragrant oil creating a pendent drop. The DROPimage software used the pendant drop image as well as known density values to calculate interfacial tension at the liquid-liquid interface.

[4] = format: physicochemical
Protocol: To determine fragrance content, thermogravimetric analysis (TGA) was performed on fragrance-loaded sill microparticles. Samples were allowed to air dry for 24 hours prior to analysis. FIGS. 18D-18F depict the results of the TGA for encapsulation of three fragrances, while FIGS. 18A-18C show the individual emulsion components. A small increase in temperature causes the ethanol to volatilize rapidly, while the silk and vegetable oil only begin to degrade at temperatures of 220° C. and 300° C. respectively. The fragrances used are highly volatile and were expected to vaporize well before the silk and oil components. As shown in FIG. 18D-18F, it is difficult to distinguish the fragrance component from the ethanol, they are both released from the microparticles in the same temperature range. To estimate the fragrance content, the change in rate of weight loss during heating from 23° C. to 100° C. was taken as the transition between primarily ethanol evaporation prior to change in rate and fragrances loss subsequently.
To address concerns with release between ethanol and the encapsulated fragrance, a 250 minute incubation at 50° C. was employed during a second set of TGA runs. This incubation was added to ensure that any free surface fragrance and ethanol would vaporize prior to further temperature ramping. After incubation the silk particles contain fragrance only if it was entrapped within the silk.
(§1) Thermogravimetric analysis (TGA) (TA Instruments Q500) was used to measure weight changes in the microparticles. For rapid estimates of microparticle composition the TGA was heated from 23° C. to 500° C. at a rate of ˜20° C./min. To distinguish surface fragrance from encapsulated fragrance, samples were run with a ˜250 minute incubation at 50° C. prior to continued heating. For analysis of fragrance protection the TGA was held isothermal for 30 minutes every 20° C. interval from 70° C. up to 210° C. For each segment weight loss was monitored and attributed to fragrance release from the microparticles.

[5] = TGA with stepwise isothermal segments, fragrance protection by PEO/silk coatings; format: physicochemical; details: limonene containing microparticles
Description: It has been previously discussed that hydrated barriers can alter the rate of compound release from aqueous silk, hyaluronic acid, gelatin, and alginate constructs (Guziewicz et al., 2011; Elia et al., 2011; Omi et al., 1991; Sriamornsak et al., 2007; Chan et al., 2007; and Li et al., 2006). In combination with the hydrophobic nature of the fragrances, a protective barrier designed to maintain moisture can be desired. The coating scheme is illustrated in FIG. 27A. Each coating comprises a polyethylene oxide (PEO) layer surrounded by a silk fibroin film. Particles were coated with one, three or five coatings and a modified TGA was performed to assess fragrance retention. […] FIGS. 27B-27D depict scanning electron micrographs of these particles.
as §1

[6] = Limonene release in water from limonene/silk/PVA microparticles (TGA after soaking); format: physicochemical
Protocol: FIGS. 22A-22B are data graphs showing retention/release of fragrance from the fragrance-encapsulated silk microparticles under a specified condition. The microparticles were then diluted in water and passed through 120 μm filter. The isolated microparticles were then incubated in water to determine fragrance release over time. FIG. 22A is a data graph of TGA (performed with ˜250 min 50° C. incubation, followed by ramping to 400° C. at 5° C./min) showing weight loss of fragrance-encapsulated silk microparticles over a period of time when subjected to various temperatures. […] These silk microparticles show retention across 14 days without any additional coatings. FIG. 22B is a bar graph showing percents of encapsulated limonene release in water from O/W/O PVA silk microparticles without coatings. Using the “no release” as the reference point for fragrance content, there was about 2-3% difference in mass for fragrance-encapsulated silk microparticles soaked in water. Mass loss corresponds to fragrance loss during soaking in an aqueous environment, with an increase of fragrance release after longer exposure to the aqueous environment.

[7] = Dissolution of untreated loaded silk films and release of load in aqueous medium; format: physicochemical
Protocol: Rapid dissolution of films loaded with a dye and release of the dye from the films occur when the films are immersed in ˜37° C. buffer (FIG. 10). Dissolvable silk films loaded with an odor-releasing substance and/or flavoring substance (e.g., ˜0.5, 0.25 or 0.125 mg of adenosine per 0.2 mm^2 film) released the majority of the drug load (approx. 80%) within 15 minutes of exposure to 37° C. phosphate buffered saline (PBS) (Data not shown).

[8] = silk concentration ~3%, fragrance:silk ~1:2
[9] = silk concentration ~5%, fragrance:silk ~1:2

Compound: CCCC(C)C(=O)OCC (centres unmarked) [Applinate]
- Log P [1]: 2.76
- Microparticle size ([2]; silk concentration 3%, fragrance:silk ~1:4): 9.53 ± 2.47 μm
- Microparticle size ([2]; silk concentration 3%, fragrance:silk ~1:8): 9.22 ± 2.79 μm
- Microparticle size ([2]; silk concentration 5%, fragrance:silk ~1:4): 9.64 ± 3.11 μm
- Microparticle size ([2]; silk concentration 5%, fragrance:silk ~1:8): 9.61 ± 2.40 μm
- Microparticle size [2, 8]: 8.49 ± 2.53 μm
- Microparticle size ([2]; silk concentration ~3%, fragrance:silk ~1:2, listed as applinate): 8.49+/−2.53 μm and 8.49 ± 2.53 μm
- Microparticle size [2, 9]: 8.11 ± 1.96 μm
- Microparticle size ([2]; silk concentration ~5%, fragrance:silk ~1:2, listed as applinate): 8.11+/−1.76 μm and 8.11 ± 1.96 μm

Compound: C/C=C/C(=O)C1C(C)C=CCC1(C)C (centres unmarked) [Delta-Damascone]
- Log P [1]: 3.91
- Microparticle size [2, 8]: 7.60 ± 2.71 μm
- Microparticle size [2, 9]: 7.84 ± 1.49 μm

Compound: C=CC(C)CCCC(C)(C)O (centres unmarked) [Dihydromyrcenol]
- Log P [1]: 3.25
- Microparticle size [2, 9]: 7.71 ± 1.82 μm

Compound: C=C(C)C1CC=C(C)CC1 (centres unmarked) [Limonene]
- Interfacial tension ([3]; between silk and limonene, lowest molecular weight and highest silk concentrations): 4.59+/−0.32 mN/m
- Interfacial tension ([3]; between silk and limonene, lowest molecular weight silk at about 2% (highest value found)): 8.16+/−0.57 mN/m
- Interfacial tension ([3]; limonene / 6% silk at 3.1 uM NaCl): 1.82+/−0.39 mN/m
- Interfacial tension ([3]; limonene / unaltered 6% silk (30 minute degummed), n=3): 4.78+/−0.28 mN/m
- Loss of limonene during incubation period ([4]; O/W/O microparticles, TGA with 250 minute incubation at 50° C.): majority of the limonene is lost
- Limonene fraction of microparticles ([4]; preformed PVA/silk microparticles soaked about 1 or about 24 hours in limonene oil, TGA): 85-90%
- Weight Loss (%), Total Loss ([5]; 1 PEO/silk coating, 70-210° C. segments): 8.2%
- Weight Loss (%) ([5]; 1 PEO/silk coating, isotherm segment 70° C.): 0.179%
- Weight Loss (%) ([5]; 1 PEO/silk coating, isotherm segment 90° C.): 1.024%
- Weight Loss (%) ([5]; 1 PEO/silk coating, isotherm segment 110° C.): 0.154%
- Weight Loss (%) ([5]; 1 PEO/silk coating, isotherm segment 130° C.): 0.342%
- Weight Loss (%) ([5]; 1 PEO/silk coating, isotherm segment 150° C.): 0.323%
- Weight Loss (%) ([5]; 1 PEO/silk coating, isotherm segment 170° C.): 0.367%
- Weight Loss (%) ([5]; 1 PEO/silk coating, isotherm segment 190° C.): 2.465%
- Weight Loss (%) ([5]; 1 PEO/silk coating, isotherm segment 210° C.): 3.3201%
- Weight Loss (%), Total Loss ([5]; 3 PEO/silk coatings, 70-210° C. segments): 1.2%
- Weight Loss (%) ([5]; 3 PEO/silk coatings, isotherm segment 70° C.): 0.035%
- Weight Loss (%) ([5]; 3 PEO/silk coatings, isotherm segment 90° C.): −0.019%
- Weight Loss (%) ([5]; 3 PEO/silk coatings, isotherm segment 110° C.): 0.091%
- Weight Loss (%) ([5]; 3 PEO/silk coatings, isotherm segment 130° C.): −0.102%
- Weight Loss (%) ([5]; 3 PEO/silk coatings, isotherm segment 150° C.): 0.056%
- Weight Loss (%) ([5]; 3 PEO/silk coatings, isotherm segment 170° C.): 0.288%
- Weight Loss (%) ([5]; 3 PEO/silk coatings, isotherm segment 190° C.): 0.328%
- Weight Loss (%) ([5]; 3 PEO/silk coatings, isotherm segment 210° C.): 0.478%
- Weight Loss (%), Total Loss (fragrance retention) ([5]; 5 PEO/silk coatings, 70-210° C. segments): 16.8%
- Weight Loss (%) ([5]; 5 PEO/silk coatings, isotherm segment 70° C.): 1.535%
- Weight Loss (%) ([5]; 5 PEO/silk coatings, isotherm segment 90° C.): 3.531%
- Weight Loss (%) ([5]; 5 PEO/silk coatings, isotherm segment 110° C.): 3.579%
- Weight Loss (%) ([5]; 5 PEO/silk coatings, isotherm segment 130° C.): 2.391%
- Weight Loss (%) ([5]; 5 PEO/silk coatings, isotherm segment 150° C.): 1.549%
- Weight Loss (%) ([5]; 5 PEO/silk coatings, isotherm segment 170° C.): 1.314%
- Weight Loss (%) ([5]; 5 PEO/silk coatings, isotherm segment 190° C.): 1.278%
- Weight Loss (%) ([5]; 5 PEO/silk coatings, isotherm segment 210° C.): 1.615%
- Difference in mass versus no release (fragrance loss on soaking in water) ([6]; uncoated limonene/silk/PVA O/W/O microparticles soaked in water, TGA): 2-3%
- Retention in water without additional coatings ([6]; uncoated limonene/silk/PVA microparticles incubated in water): 14 days
- Microparticle size [2, 8]: 9.57 ± 2.70 μm
- Microparticle size ([2]; silk concentration ~3%, fragrance:silk ~1:2, listed as limonene): 9.57+/−2.70 μm
- Microparticle size [2, 9]: 12.40 ± 4.76 μm
- Microparticle size ([2]; silk concentration ~5%, fragrance:silk ~1:2, listed as limonene): 12.40+/−4.96 μm

Compound: Nc1ncnc2c1ncn2[C@@H]1O[C@H](CO)[C@@H](O)[C@H]1O [adenosine]
- Drug load released ([7]; dissolvable silk films, ~0.5, 0.25 or 0.125 mg per 0.2 mm^2 film, within 15 minutes in 37° C. PBS, data not shown): approx. 80%

Now from value to compound:

- Time to full dissolution ([7]; untreated dye-loaded silk film immersed in ~37° C. water): about 30 minutes
Compound: O=C1/C(=C2\Nc3ccc(S(=O)(=O)[O-])cc3C2=O)Nc2ccc(S(=O)(=O)[O-])cc21.[Na+].[Na+] [indigo carmine]

- Temperature at which degradation begins [4]: 300 °C
Compound: vegetable oil
